Assay results reported in US5767085A, “Compounds with growth hormone releasing properties” (Novo Nordisk A/S, priority 1993, dated 1998).
Where a SMILES comes first, the peptide text is derived from it. [ ]: non-standard residue; d: D form. d1Nal = N[C@H](Cc1cccc2ccccc12)C(=O)O; d2Nal = N[C@H](Cc1ccc2ccccc2c1)C(=O)O; Aib = CC(C)(N)C(=O)O

Test system: rat pituitary cells
Experiment: In-vitro GH release assay using rat pituitary cells (rGH measured by SPA)
Format: cell-based
Settings: GH secretion from cultured male rat anterior pituitary cells, 15 min stimulation
Description: An in-vitro assay using rat pituitary cells was established to study the effect of different GH secretagogues. The mixed pituitary cell culture was isolated from the anterior pituitary of male rats and cultured for 3 days. After washing the cells were stimulated for 15 min and the amount of GH secreted measured in the culture supernatant. The isolation of rat pituitary cells was a modification of 0. Sartor et al., Endocrinolog 116, 1985, pp. 952-957. Pituitaries were discharged from 250 g male Sprague-Dawley rats after decapitation. The neurointermediate lobes were removed and the remainder was placed in Grey's medium supplemented with 0.25% glucose, 2× non essential amino acid and 1% BSA (isolation buffer). The glands were cut into small pieces and transferred to a flask containing 3 ml isolation buffer+11.5 mg trypsin and 1000 μg DNase and incubated for 35 min at 37° C., 95% ° 2 and 70 rotations per min. The fragments were washed 3 times by sedimentation in isolation buffer and aspirated into single cells by using a pasteur pipet. After dispersion the cells were filtered though a nylon filter (160 jum) to remove undigested tissue. The cells were washed 3 times with isolation buffer supplemented with trypsin inhibitor (0.75 mg/ml) and resuspended in culture medium (DMEM supplemented with 25 mM HEPES, 4mM Glutamine, 0.75% sodium bicarbonate, 2.5% FCS, 3% horse serum, 10% rat serum, 1 nM T3 and 40 gg/L dexamethasone) to a density of 2×10^5 cells/ml. The cells were seeded into microtiter plates, 200 μl/well and cultured for 3 days at 37° C.and 8% CO2. Following the culture period the cells were washed twice with stimulation buffer (HBSS supplemented with 1% BSA, 0.25% D-glucose and 25 mM HEPES) and preincubated for 1 hour. The buffer was then removed and new stimulation buffer containing the peptide was added and the plates were incubated for 15 min at 37° C.and 5% CO2. The medium was collected and analyzed for rat growth hormone (rGH) content in a scintillation proximity assay (SPA) as follows (SPA, essentially as described in U.S. Pat. No. 4,568,649, Hart and […], Mol.Immunol. 16, 1979, pp. 265-269, or Udenfriend et al., Proc.Natl.Acad.Sci. USA 82, 1985, pp. 8672-8676). The rGH assay was performed in OptiPlates (96-well plates) suitable for direct counting in a […] TopCount (β-scintillation counter). Assay Protocol: 40 μl buffer 10 μl sample (incubated stimulation buffer) […] 50 μl rabbit anti-rGH 50 μl SPA reagent (anti-rabbit antibody) The plates are sealed and placed on a plate shaker for 30 minutes followed by 10 hours of incubation and settling at 10-15° C.and counting. In the SPA, rGH bound to an anti-GH rabbit antibody (primary antibody) is reacted with a second antibody bound to fluomicrospheres (SPA Type II RIA available from Amersham). Any radiolabelled rGH which is bound to the primary antibody will be immobilized on the fluomicrospheres which will then produce light. Measurement in a β-scintillation counter makes it possible to calculate the amount of radiolabelled rGH. The amount of radiolabelled rGH bound to the fluomicrospheres decreases with an increasing content of rGH in the sample.

For C[C@H](N)C(=O)N[C@@H](Cc1ccccc1)C(=O)N[C@H](Cc1ccc2ccccc2c1)C(=O)N[C@H](Cc1ccccc1)C(=O)N[C@@H](CCCCN)C(N)=O [Example 10, H--Ala--Phe--D-2Nal-D--Phe--Lys--NH2] (H-AF[d2Nal][dF]K-NH2), the EC50 was 2 nM and the “Emax (% of GHRP-6)” value was 90 % of GHRP-6.

In the case of C[C@H](N)C(=O)N[C@@H](Cc1c[nH]cn1)C(=O)N[C@H](Cc1cccc2ccccc12)C(=O)N[C@H](Cc1ccccc1)C(=O)N[C@@H](CCCCN)C(N)=O [Example 51, H--Ala--His--D-1Nal-D--Phe--Lys--NH2] (H-AH[d1Nal][dF]K-NH2), the EC50 is reported as 10 nM and the “Emax (% of GHRP-6)” value is reported as 85 % of GHRP-6.

In the case of CC(C)(N)C(=O)N[C@@H](Cc1ccccc1)C(=O)N[C@H](Cc1ccc2ccccc2c1)C(=O)N[C@H](Cc1ccccc1)C(=O)N[C@@H](CCCCN)C(N)=O [Example 83, H--Aib--Phe--D-2Nal-D--Phe--Lys--NH2] (H-[Aib]F[d2Nal][dF]K-NH2), the EC50 is reported as 8 nM and the “Emax (% of GHRP-6)” value is reported as 75 % of GHRP-6.

For C[C@H](NC(=O)[C@@H](Cc1ccccc1)NC(=O)[C@@H](Cc1ccc2ccccc2c1)NC(=O)[C@H](Cc1c[nH]cn1)NC(=O)C(C)(C)N)C(N)=O [Example 88, H--Aib--His--D-2Nal-D--Phe--Ala--NH2] (H-[Aib]H[d2Nal][dF]A-NH2), the EC50 was 11 nM and the “Emax (% of GHRP-6)” value was 80 % of GHRP-6.
